# Experimental data published in paper PMC11397024, “Strategic Fluorination to Achieve a Potent, Selective, Metabolically Stable, and Orally Bioavailable Inhibitor of CSNK2” (Molecules, 2024).
# How the values were obtained:
# Test in all cases: NanoBRET K192
# Format in all cases: cell-based
# BMP2K = target: T1, BMP2K (Homo sapiens, UniProt Q9NSY1); settings: HEK293
# T1 construct: purchased Promega (NanoBRET Target Engagement K192 Kinase Selectivity System)
# In short: (§1)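 HEK293 cells were transfected overnight with NanoLuc–kinase fusion vectors, then treated for 2 h at 37 °C with compound (added as 100 μM working solution) plus K10 tracer. BRET was read at 450/610 nm after substrate and extracellular inhibitor, and fractional occupancy was calculated against no-compound controls.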
# BMX = target: T2, BMX (Homo sapiens, UniProt P51813); settings: HEK293
# T2 construct: purchased Promega (NanoBRET Target Engagement K192 Kinase Selectivity System)
# In short: as §1
# CDK16 + Y = target: T3, CDK16 + Y (Homo sapiens, UniProt Q00536); settings: HEK293
# T3 construct: purchased Promega (NanoBRET Target Engagement K192 Kinase Selectivity System)
# In short: as §1
# CDK17 + Y = target: T4, CDK17 + Y (Homo sapiens, UniProt Q00537); settings: HEK293
# T4 construct: purchased Promega (NanoBRET Target Engagement K192 Kinase Selectivity System)
# In short: as §1
# CDK3 + E1 = target: T5, CDK3 + E1 (Homo sapiens, UniProt Q00526); settings: HEK293
# T5 construct: purchased Promega (NanoBRET Target Engagement K192 Kinase Selectivity System)
# In short: as §1
# DYRK1B = target: T6, DYRK1B (Homo sapiens, UniProt Q9Y463); settings: HEK293
# T6 construct: purchased Promega (NanoBRET Target Engagement K192 Kinase Selectivity System)
# In short: as §1
# FLT3 = target: T7, FLT3 (Homo sapiens, UniProt P36888); settings: HEK293
# T7 construct: host or cells: HEK293
# In short: as §1
# HIPK2 = target: T8, HIPK2 (Homo sapiens, UniProt Q9H2X6); settings: HEK293
# T8 construct: purchased Promega (NanoBRET Target Engagement K192 Kinase Selectivity System)
# In short: as §1
# HIPK3 = target: T9, HIPK3 (Homo sapiens, UniProt Q9H422); settings: HEK293
# T9 construct: purchased Promega (NanoBRET Target Engagement K192 Kinase Selectivity System)
# In short: as §1
# ITK = target: T10, ITK (Homo sapiens, UniProt Q08881); settings: HEK293
# T10 construct: purchased Promega (NanoBRET Target Engagement K192 Kinase Selectivity System)
# In short: as §1
# JAK3 = target: T11, JAK3 (Homo sapiens, UniProt P52333); settings: HEK293
# T11 construct: purchased Promega (NanoBRET Target Engagement K192 Kinase Selectivity System)
# In short: as §1
# LATS2 = target: T12, LATS2 (Homo sapiens, UniProt Q9NRM7); settings: HEK293
# T12 construct: purchased Promega (NanoBRET Target Engagement K192 Kinase Selectivity System)
# In short: as §1
# MAP3K12 = target: T13, MAP3K12 (Homo sapiens, UniProt Q12852); settings: HEK293
# T13 construct: purchased Promega (NanoBRET Target Engagement K192 Kinase Selectivity System)
# In short: as §1
# MAP3K2 = target: T14, MAP3K2 (Homo sapiens, UniProt Q9Y2U5); settings: HEK293
# T14 construct: purchased Promega (NanoBRET Target Engagement K192 Kinase Selectivity System)
# In short: as §1
# MAP3K9 = target: T15, MAP3K9 (Homo sapiens, UniProt P80192); settings: HEK293
# T15 construct: purchased Promega (NanoBRET Target Engagement K192 Kinase Selectivity System)
# In short: as §1
# MAP4K2 = target: T16, MAP4K2 (Homo sapiens, UniProt Q12851); settings: HEK293
# T16 construct: purchased Promega (NanoBRET Target Engagement K192 Kinase Selectivity System)
# In short: as §1
# MARK4 = target: T17, MARK4 (Homo sapiens, UniProt Q96L34); settings: HEK293
# T17 construct: purchased Promega (NanoBRET Target Engagement K192 Kinase Selectivity System)
# In short: as §1
# NEK9 = target: T18, NEK9 (Homo sapiens, UniProt Q8TD19); settings: HEK293
# T18 construct: purchased Promega (NanoBRET Target Engagement K192 Kinase Selectivity System)
# In short: as §1
# NTRK1v1 = target: T19, NTRK1v1 (Homo sapiens, UniProt P04629); settings: HEK293
# T19 construct: purchased Promega (NanoBRET Target Engagement K192 Kinase Selectivity System)
# In short: as §1
# NUAK1 = target: T20, NUAK1 (Homo sapiens, UniProt O60285); settings: HEK293
# T20 construct: purchased Promega (NanoBRET Target Engagement K192 Kinase Selectivity System)
# In short: as §1
# PHKG1 = target: T21, PHKG1 (Homo sapiens, UniProt Q16816)
# T21 construct: purchased Promega (NanoBRET Target Engagement K192 Kinase Selectivity System)
# In short: as §1
# PRKCE = target: T22, PRKCE (Homo sapiens, UniProt Q02156); settings: HEK293
# T22 construct: purchased Promega (NanoBRET Target Engagement K192 Kinase Selectivity System)
# In short: as §1
# RIPK1 = target: T23, RIPK1 (Homo sapiens, UniProt Q13546); settings: HEK293
# T23 construct: purchased Promega (NanoBRET Target Engagement K192 Kinase Selectivity System)
# In short: as §1
# RPS6KA2 = target: T24, RPS6KA2 (Homo sapiens, UniProt Q15349); settings: HEK293
# T24 construct: purchased Promega (NanoBRET Target Engagement K192 Kinase Selectivity System)
# In short: as §1
# RPS6KA4 = target: T25, RPS6KA4 (Homo sapiens, UniProt O75676); settings: HEK293
# T25 construct: purchased Promega (NanoBRET Target Engagement K192 Kinase Selectivity System)
# In short: as §1
# STK32B = target: T26, STK32B (Homo sapiens, UniProt Q9NY57); settings: HEK293
# T26 construct: purchased Promega (NanoBRET Target Engagement K192 Kinase Selectivity System)
# In short: as §1
# TNNI3K = target: T27, TNNI3K (Homo sapiens, UniProt Q59H18); settings: HEK293
# T27 construct: purchased Promega (NanoBRET Target Engagement K192 Kinase Selectivity System)
# In short: as §1
# WEE2 = target: T28, WEE2 (Homo sapiens, UniProt P0C1S8); settings: HEK293
# T28 construct: purchased Promega (NanoBRET Target Engagement K192 Kinase Selectivity System)
# In short: as §1
# T21 sequence (Q16816 whole entry): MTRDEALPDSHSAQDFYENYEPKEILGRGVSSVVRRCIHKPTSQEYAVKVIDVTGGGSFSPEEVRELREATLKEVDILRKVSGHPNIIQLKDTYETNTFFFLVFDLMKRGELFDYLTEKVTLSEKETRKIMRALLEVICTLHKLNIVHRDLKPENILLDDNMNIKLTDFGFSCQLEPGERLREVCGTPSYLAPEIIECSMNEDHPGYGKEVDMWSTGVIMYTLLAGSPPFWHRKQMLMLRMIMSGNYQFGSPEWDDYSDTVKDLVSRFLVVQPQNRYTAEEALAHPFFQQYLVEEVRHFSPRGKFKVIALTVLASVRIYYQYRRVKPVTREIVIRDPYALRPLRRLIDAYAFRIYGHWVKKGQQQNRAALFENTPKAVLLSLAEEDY
# T7 sequence (P36888 27-993): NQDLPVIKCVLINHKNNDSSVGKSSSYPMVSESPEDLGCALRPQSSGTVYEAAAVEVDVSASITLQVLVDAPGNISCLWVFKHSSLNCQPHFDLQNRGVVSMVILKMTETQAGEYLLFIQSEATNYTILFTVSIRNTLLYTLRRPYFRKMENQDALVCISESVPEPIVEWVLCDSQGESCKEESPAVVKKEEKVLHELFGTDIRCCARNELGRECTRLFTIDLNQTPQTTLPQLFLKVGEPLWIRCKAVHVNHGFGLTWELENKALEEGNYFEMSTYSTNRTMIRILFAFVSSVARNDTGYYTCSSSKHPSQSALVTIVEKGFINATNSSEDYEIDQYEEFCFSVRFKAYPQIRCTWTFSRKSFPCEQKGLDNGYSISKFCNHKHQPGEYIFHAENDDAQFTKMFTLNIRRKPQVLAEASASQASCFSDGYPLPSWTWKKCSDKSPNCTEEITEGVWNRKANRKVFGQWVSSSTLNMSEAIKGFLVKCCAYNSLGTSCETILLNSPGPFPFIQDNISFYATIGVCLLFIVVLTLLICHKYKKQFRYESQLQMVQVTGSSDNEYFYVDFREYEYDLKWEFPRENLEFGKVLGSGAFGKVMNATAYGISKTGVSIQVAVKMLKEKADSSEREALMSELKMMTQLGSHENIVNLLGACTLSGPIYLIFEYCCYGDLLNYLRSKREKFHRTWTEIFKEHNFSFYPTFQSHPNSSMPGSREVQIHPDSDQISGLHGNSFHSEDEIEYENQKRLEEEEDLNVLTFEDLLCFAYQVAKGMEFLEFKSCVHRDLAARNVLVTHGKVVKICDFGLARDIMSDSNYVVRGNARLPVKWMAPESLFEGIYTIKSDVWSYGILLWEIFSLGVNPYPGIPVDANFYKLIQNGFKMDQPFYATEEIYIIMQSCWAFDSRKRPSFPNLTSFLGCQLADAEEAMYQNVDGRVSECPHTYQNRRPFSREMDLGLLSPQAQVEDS
# T20 sequence (O60285 whole entry): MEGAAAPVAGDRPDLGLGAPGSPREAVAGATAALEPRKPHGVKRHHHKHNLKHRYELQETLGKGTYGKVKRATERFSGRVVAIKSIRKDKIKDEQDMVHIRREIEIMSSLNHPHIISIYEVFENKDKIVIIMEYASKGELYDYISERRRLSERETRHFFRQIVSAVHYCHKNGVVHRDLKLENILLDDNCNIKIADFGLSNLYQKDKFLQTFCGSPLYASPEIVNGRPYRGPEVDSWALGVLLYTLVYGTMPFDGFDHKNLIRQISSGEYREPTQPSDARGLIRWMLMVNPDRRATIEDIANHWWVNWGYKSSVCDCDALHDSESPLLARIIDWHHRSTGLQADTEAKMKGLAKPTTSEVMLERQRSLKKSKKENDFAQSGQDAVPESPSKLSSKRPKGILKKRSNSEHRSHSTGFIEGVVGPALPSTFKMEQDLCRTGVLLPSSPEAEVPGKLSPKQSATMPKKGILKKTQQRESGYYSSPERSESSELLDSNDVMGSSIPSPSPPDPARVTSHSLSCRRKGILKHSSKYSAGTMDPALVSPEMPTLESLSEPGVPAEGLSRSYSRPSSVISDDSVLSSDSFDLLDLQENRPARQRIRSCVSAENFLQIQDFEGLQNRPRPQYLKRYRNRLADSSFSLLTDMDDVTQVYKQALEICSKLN
# T17 sequence (Q96L34 whole entry): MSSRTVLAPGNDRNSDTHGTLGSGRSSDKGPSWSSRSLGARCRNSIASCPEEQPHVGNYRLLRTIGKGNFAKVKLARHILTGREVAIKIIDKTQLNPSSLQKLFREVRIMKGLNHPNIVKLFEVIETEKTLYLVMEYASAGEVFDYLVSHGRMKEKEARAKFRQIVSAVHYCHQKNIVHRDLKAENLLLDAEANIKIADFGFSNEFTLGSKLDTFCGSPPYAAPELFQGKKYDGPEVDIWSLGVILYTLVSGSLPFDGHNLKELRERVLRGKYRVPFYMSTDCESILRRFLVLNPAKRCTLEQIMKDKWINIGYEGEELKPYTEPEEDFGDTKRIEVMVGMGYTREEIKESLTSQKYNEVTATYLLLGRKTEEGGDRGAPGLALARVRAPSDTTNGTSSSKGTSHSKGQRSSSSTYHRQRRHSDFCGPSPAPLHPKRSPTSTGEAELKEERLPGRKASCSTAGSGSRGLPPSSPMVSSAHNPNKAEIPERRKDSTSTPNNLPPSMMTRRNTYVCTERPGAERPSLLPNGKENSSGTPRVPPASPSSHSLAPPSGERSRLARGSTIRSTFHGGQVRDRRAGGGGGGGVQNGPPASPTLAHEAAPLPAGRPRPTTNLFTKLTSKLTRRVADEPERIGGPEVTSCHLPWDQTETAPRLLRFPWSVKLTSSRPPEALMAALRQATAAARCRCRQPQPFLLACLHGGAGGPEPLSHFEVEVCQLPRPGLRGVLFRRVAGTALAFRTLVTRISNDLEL
# T8 sequence (Q9H2X6 whole entry): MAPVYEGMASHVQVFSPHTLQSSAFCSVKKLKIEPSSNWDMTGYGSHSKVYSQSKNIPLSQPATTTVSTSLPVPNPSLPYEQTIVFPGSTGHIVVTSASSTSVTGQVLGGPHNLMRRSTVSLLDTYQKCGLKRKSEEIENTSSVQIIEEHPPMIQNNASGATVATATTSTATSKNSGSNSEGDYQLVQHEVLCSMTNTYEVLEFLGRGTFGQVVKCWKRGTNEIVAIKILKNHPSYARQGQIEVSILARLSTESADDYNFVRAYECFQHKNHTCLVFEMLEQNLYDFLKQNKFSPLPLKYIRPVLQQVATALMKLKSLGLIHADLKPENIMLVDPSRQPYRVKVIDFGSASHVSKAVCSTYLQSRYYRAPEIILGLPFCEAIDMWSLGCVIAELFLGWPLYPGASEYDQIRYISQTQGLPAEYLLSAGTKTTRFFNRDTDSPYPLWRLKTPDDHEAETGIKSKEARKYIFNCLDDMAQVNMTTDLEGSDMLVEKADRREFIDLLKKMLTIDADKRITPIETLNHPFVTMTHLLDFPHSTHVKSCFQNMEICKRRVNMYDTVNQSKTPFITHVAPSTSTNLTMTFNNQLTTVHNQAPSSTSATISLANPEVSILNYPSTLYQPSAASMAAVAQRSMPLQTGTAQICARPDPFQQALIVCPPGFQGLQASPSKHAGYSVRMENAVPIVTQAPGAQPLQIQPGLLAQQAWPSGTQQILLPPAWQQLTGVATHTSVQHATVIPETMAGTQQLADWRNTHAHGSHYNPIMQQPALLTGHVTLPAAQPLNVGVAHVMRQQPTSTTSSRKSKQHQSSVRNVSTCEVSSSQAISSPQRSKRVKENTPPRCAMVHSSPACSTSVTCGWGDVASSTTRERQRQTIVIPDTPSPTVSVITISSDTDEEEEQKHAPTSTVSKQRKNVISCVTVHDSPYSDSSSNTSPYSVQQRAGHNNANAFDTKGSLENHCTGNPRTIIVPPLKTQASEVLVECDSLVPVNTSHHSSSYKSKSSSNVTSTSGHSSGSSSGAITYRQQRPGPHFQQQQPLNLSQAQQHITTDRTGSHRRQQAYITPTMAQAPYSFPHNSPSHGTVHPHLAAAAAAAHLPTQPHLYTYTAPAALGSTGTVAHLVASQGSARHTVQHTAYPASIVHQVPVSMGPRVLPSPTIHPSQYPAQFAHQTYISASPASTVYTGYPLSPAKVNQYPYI
# T10 sequence (Q08881 whole entry): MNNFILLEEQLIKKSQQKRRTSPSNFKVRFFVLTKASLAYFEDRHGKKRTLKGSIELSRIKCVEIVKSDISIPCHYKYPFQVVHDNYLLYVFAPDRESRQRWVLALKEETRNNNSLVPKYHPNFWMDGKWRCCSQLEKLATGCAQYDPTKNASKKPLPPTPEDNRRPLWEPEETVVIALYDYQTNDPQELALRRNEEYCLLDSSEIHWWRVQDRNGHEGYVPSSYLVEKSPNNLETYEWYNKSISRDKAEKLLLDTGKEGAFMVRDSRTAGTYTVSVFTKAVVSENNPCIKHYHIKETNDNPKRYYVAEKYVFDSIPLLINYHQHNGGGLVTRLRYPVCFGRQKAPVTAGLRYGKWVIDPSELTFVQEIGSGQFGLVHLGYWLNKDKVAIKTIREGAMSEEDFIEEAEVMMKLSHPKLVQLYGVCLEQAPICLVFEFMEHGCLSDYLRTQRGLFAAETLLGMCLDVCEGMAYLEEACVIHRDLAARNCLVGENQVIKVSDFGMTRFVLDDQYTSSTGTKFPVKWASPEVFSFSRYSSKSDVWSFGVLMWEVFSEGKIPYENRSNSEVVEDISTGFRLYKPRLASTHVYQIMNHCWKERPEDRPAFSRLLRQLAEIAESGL
# T26 sequence (Q9NY57 whole entry): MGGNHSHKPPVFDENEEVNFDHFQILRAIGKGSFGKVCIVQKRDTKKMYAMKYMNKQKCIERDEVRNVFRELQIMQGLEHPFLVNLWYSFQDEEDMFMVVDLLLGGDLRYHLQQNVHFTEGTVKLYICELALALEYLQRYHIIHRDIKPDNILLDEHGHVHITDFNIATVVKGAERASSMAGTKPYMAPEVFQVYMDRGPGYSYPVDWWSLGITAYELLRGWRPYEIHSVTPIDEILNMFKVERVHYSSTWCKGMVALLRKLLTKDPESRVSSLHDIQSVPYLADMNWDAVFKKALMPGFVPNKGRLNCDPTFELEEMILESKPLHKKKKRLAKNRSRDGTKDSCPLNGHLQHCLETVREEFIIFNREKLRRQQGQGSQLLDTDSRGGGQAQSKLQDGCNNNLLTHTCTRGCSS
smiles,measurement,setting,value
"CCC(=O)Nc1cc(Nc2cc(NC3CC3)n3ncc(C#N)c3n2)c(F)cc1N1CCC[C@H](NC)C1 [Compound 2, (S)-N-(5-((3-cyano-7-(cyclopropylamino)pyrazolo[1,5-a]pyrimidin-5-yl)amino)-4-fluoro-2-(3-(methylamino)piperidin-1-yl)phenyl)propionamide]",receptor occupancy at 10 µM,BMP2K,7.6%
same,receptor occupancy at 10 µM,BMX,0.6%
same,receptor occupancy at 10 µM,CDK16 + Y,25.8%
same,receptor occupancy at 10 µM,CDK17 + Y,20.2%
same,receptor occupancy at 10 µM,CDK3 + E1,12.1%
same,receptor occupancy at 10 µM,DYRK1B,38.3%
same,receptor occupancy at 10 µM,FLT3,-13.5%
same,receptor occupancy at 10 µM,HIPK2,21.5%
same,receptor occupancy at 10 µM,HIPK3,25.5%
same,receptor occupancy at 10 µM,ITK,11.9%
same,receptor occupancy at 10 µM,JAK3,4.6%
same,receptor occupancy at 10 µM,LATS2,9.4%
same,receptor occupancy at 10 µM,MAP3K12,-0.1%
same,receptor occupancy at 10 µM,MAP3K2,13.8%
same,receptor occupancy at 10 µM,MAP3K9,4.3%
same,receptor occupancy at 10 µM,MAP4K2,31.4%
same,receptor occupancy at 10 µM,MARK4,7.4%
same,receptor occupancy at 10 µM,NEK9,1%
same,receptor occupancy at 10 µM,NTRK1v1,4.6%
same,receptor occupancy at 10 µM,NUAK1,-1.7%
same,receptor occupancy at 10 µM,"PHKG1; HEK293, PHKG1",55.3%
same,% occupancy at 10 μM,"PHKG1; PHKG1, HEK293",55%
same,receptor occupancy at 10 µM,PRKCE,6.2%
same,receptor occupancy at 10 µM,RIPK1,9.1%
same,receptor occupancy at 10 µM,RPS6KA2,2.4%
same,receptor occupancy at 10 µM,RPS6KA4,6.4%
same,receptor occupancy at 10 µM,STK32B,5.9%
same,receptor occupancy at 10 µM,TNNI3K,8%
same,receptor occupancy at 10 µM,WEE2,4.5%
